Results published in patent EP2039683B1, “Vasculostatic agents and methods of use thereof” (Targegen, Inc., priority 2002, dated 2004).
Structures can show the parent of a compound that is named as a salt.

Columns and labels:
[1] = test system: VEGF-induced edema; assay: Miles assay, VEGF as agonist; type: in vivo, Sprague-Dawley rats; conditions: VEGF 200 ng/injection site, vehicle 12
Protocol: A rodent model of vascular edema, the Miles assay, was used to screen compounds for their ability to inhibit VEGF-induced edema. […] Sprague-Dawley rats were first injected IV with vehicle alone or test agent, followed by IV injection of Evans blue dye, followed by intradermal injections of saline and VEGF (200 ng/injection site) along both shaved flanks. […] The ability of test agent to influence vascular edema was tested as above, except that the ability to block edema was tested using either VEGF or histamine as the agonist (200 ng and 10 µg/injection site, respectively).

[2] = test system: CT-26 Colon carcinoma cells; assay: CT-26 colon carcinoma lung metastases model, net tumor burden; type: in vivo, Balb/C mice
Protocol: FIGURE 3 (omitted) illustrates the effect of compounds administered in conjunction with doxorubicin in an in vivo model of metastatic colon cancer (CT-26 adenocarcinoma). Syngeneic CT-26 Colon carcinoma cells were injected I.V. in order to establish lung metastases in Balb/C mice. Beginning 10 days after cells were injected, test agents were given I.P. every 3 days for 3 cycles. Animals were sacrificed at day 20, lungs were collected, and weighed. Net tumor burden is the weight of tumor-bearing lungs minus the average weight of normal control lungs. N=5/group, p<0.02. In the experiment compound A is 6,7-bis(4-hydroxyphenyl)-pteridin-4-ylamine sulfate salt, and compound B is 6,7-diphenyl-pteridine-2,4-diamine.
FIGURE 4 (omitted) illustrates the effects of compounds of the present invention for co-drug therapy with Taxotere as described herein. Syngeneic CT-26 Colon carcinoma cells were used in order to establish lung metastases in Balb/C mice as described above. 6,7-bis(4-hydroxyphenyl)-pteridin-4-ylamine, sulfate salt (compound A) and 6,7-diphenyl-pteridine-2,4-diamine (compound B) were used.
FIGURE 6 (omitted) illustrates the effect of compounds administered in conjunction with docetaxel in the in vivo model of metastatic colon cancer (CT-26 adenocarcinoma) described for FIGURE 4. 2,3-Bis(3,4-dihydroxyphenyl)-pyrido[2,3-b]pyrazin-6-ylamine dihydrochloride salt (compound C) from FIGURE 4 is shown in FIGURE 6 as compound C. N=5/group, p<0.02.
(§1) Syngeneic CT-26 Colon carcinoma cells were injected I. V. in order to establish lung metastases in Balb/C mice. Beginning 10 days after cells were injected, indicated test agents were given I. P. every 3 days for 3 cycles. Animals were sacrificed at day 20, lungs were collected, and weighed. Net tumor burden is the weight of tumor-bearing lungs minus the average weight of normal control lungs. N=5/group, p < 0.02.
as §1, with “FIGURE 4 (omitted) illustrates the effects of the compounds of the present invention for co- drug therapy with docetaxel (Taxoteree-in this example formulated in 12. 5% Cremaphore: 12.5% Ethanol: 75% normal saline) as described herein. Syngeneic” for “Syngeneic”, “I.V.” for “I. V.”
FIGURE 6 (omitted) illustrates the effect of compounds administered in conjunction with docetaxel (Taxoreree-in this example formulated in 12.5% Cremaphore: 12.5% Ethanol:75% normal saline) in the in vivo model of metastatic colon cancer (CT-26 adenocarcinoma) described for FIGURE 4 (omitted). […] N=5/group,p < 0.02.
Similarly, 2,3-bis (4-hydroxyphenyl)-pyrido [2,3-b] pyrazin-6-ylamine dihydrochloride salt inhibited tumor burden alone or with co-drug therapy using docetaxel (Taxotere@~in this example formulated in 12.5% Cremaphore : 12.5% Ethanol:75% normal saline) as described herein. Syngeneic CT-26 Colon carcinoma cells were injected I.V. in order to establish lung metastases in Balb/C mice. Beginning 10 days after cells were injected, indicated test agents were given I.P. every 3 days for 3 cycles. Animals were sacrificed at day 20, lungs were collected, and weighed.

[3] = Acute myocardial infarct model, 60 min LAD occlusion followed by reperfusion; type: in vivo, Sprague-Dawley rats; conditions: for Infarct (% AAR, mean ± SEM): 24 hr post-treatment
Protocol: Myocardial infarcts were created in Sprague-Dawley rats (200-300 g body weight) by a 60 min occlusion of the LAD followed by LAD reperfusion. At 90 min post-reperfusion, either vehicle alone or test agents were injected IV. At 24 hr post-treatment, the ischemic zone (area at-risk, AAR) was delineated by re-ligation of the LAD followed by IV injection of alkali blue dye, after which hearts were sectioned along the short axis and stained using triphenyltetrazolium chloride to delineate viable from infarcted myocardium. Photographic images were then analyzed using morphometric software to calculate infarct area as a percent of the at-risk area.
In one group, 3-[2,4-diamino-6-(3-hydroxyphenyl)pteridin-7-yl] phenol dihydrochloride salt was administered at both 60 and 240 min post-occlusion.

[4] = Cerebral stroke model, permanent middle cerebral artery occlusion; type: in vivo, mice; conditions: 1 mg/kg BW IV 60 min after ligation; for Infarct area in mm^3 (mean ± SEM): twenty four hours later; for % Infarct reduction: versus vehicle of the same study
Protocol: Cerebral strokes were created in mice by permanent ligation of the middle cerebral artery using a cauterizing tool, followed 60 min later by IV injection of either vehicle alone (50% PEG400 in water) or test agents (at 1 mg/kg BW). Twenty four hours later, brains were sectioned and stained using triphenyltetrazolium chloride to delineate viable from infarcted tissue.

[5] = in combination with docetaxel, I.P. every 3 days for 3 cycles, day 20
[6] = stand alone agent, docetaxel co-drug studies (FIGURES 4 and 6), I.P. every 3 days for 3 cycles, day 20
[7] = 0.1 mg/kg BW IV at 90 min post-reperfusion
[8] = 0.1 mg/kg BW, versus vehicle of the same study
[9] = 1.0 mg/kg BW IV at 90 min post-reperfusion
[10] = 1.0 mg/kg BW, versus vehicle of the same study

Oc1nc(O)c2nc(-c3ccccc3)c(-c3ccc(Oc4ccc(-c5nc6c(O)nc(O)nc6nc5-c5ccccc5)cc4)cc3)nc2n1
Score (scale of 0-12) ([1]; 1.5 mg/kg IV): 3

Cl.Nc1cncc2nc(-c3ccc(O)c(O)c3)c(-c3ccc(O)c(O)c3)nc12 [2,3-(3,4-Dihydroxyphenyl)-pyrido[3,4-b]pyrazin-8-ylamine]
Score (scale of 0-12) ([1]; 0.01 mg/kg IV): 6

Cl.Cl.Nc1ccc2nc(-c3ccc(O)cc3)c(-c3ccc(O)cc3)nc2n1 [2,3-bis(4-hydroxyphenyl)-pyrido[2,3-b]pyrazin-6-ylamine dihydrochloride salt]
reduction of tumor burden [2, 5]: greater than 78% | reduction of tumor burden [2, 6]: 63%

O=C(Cc1ccc(O)c(O)c1)Nc1ccccc1-c1cc2ccccc2[nH]1 [2-(3,4-Dihydroxy-phenyl)-N-[2-(1H-indol-2-yl)-phenyl]-acetamide]
Score (scale of 0-12) ([1]; 0.5 mg/kg IV): 7

O=C(Cc1ccc(O)cc1)Nc1ccccc1-c1cc2ccccc2[nH]1 [2-(4-Hydroxy-phenyl)-N-[2-(1H-indol-2-yl)-phenyl]-acetamide]
Score (scale of 0-12) ([1]; 1.5 mg/kg IV): 2

O=S(=O)(O)c1cc(Nc2ncnc3ncc(-c4ccccc4)nc23)ccc1O [2-Hydroxy-5-(6-phenyl-pteridin-4-ylamino)-benzenesulfonic acid]
Score (scale of 0-12) ([1]; 0.5 mg/kg IV): 6

O=C1c2ccccc2C(=O)N1c1ccccc1-c1cc2ccccc2[nH]1 [2-[2-(1H-indol-2-yl)-phenyl]-isoindole-1,3-dione]
Score (scale of 0-12) ([1]; 1.5 mg/kg IV): 3

O=C(Nc1ccccc1-c1cc2ccccc2[nH]1)c1ccc(O)c(O)c1 [3,4-Dihydroxy-N-[2-(1H-indol-2-yl)-phenyl]-benzamide]
Score (scale of 0-12) ([1]; 0.1 mg/kg IV): 6

O=C(CCc1ccc(O)cc1)Nc1ccccc1-c1cc2ccccc2[nH]1 [3-(4-Hydroxy-phenyl)-N-[2-(1H-indol-2-yl)-phenyl]-propionamide]
Score (scale of 0-12) ([1]; 1.5 mg/kg IV): 2

Br.Br.Nc1nc(N)c2nc(-c3cccc(O)c3)c(-c3cccc(O)c3)nc2n1 [3-[2,4-Diamino-6-(3-hydroxyphenyl)pteridin-7-yl]phenol dibromide salt]
Infarct (% AAR, mean ± SEM) ([3]; 0.5 mg/kg BW IV at 90 min post-reperfusion, Study 5): 31.6 ± 6.2 % AAR | % Infarct reduction ([3]; 0.5 mg/kg BW, versus vehicle, Study 5): 42%

Cl.Cl.Nc1nc(N)c2nc(-c3cccc(O)c3)c(-c3cccc(O)c3)nc2n1 [3-[2,4-diamino-6-(3-hydroxyphenyl)pteridin-7-yl] phenol dihydrochloride salt]
Score (scale of 0-12) ([1]; 0.01 mg/kg IV): 3 | Score (scale of 0-12) ([1]; 0.1 mg/kg IV): 4 | Score (scale of 0-12) ([1]; 1 mg/kg IV): 4 | Infarct (% AAR, mean ± SEM) [3, 7]: 37.7 ± 5.8 % AAR | % Infarct reduction [3, 8]: 30% | Infarct (% AAR, mean ± SEM) [3, 9]: 46.4 ± 2.6 % AAR | % Infarct reduction [3, 10]: Not significant

Nc1nc(N)c2nc(-c3ccc(O)cc3)cnc2n1 [4-(2,4-Diamno-pteridin-6-yl)-phenol (sulfate salt)]
Score (scale of 0-12) ([1]; 5 mg/kg IV, lower score = greater anti-edema activity): 2

Cl.Nc1ncnc2nc(-c3ccc(O)c(O)c3)c(-c3ccc(O)c(O)c3)nc12 [4-[4-amino-6-(3,4-dihydroxyphenyl)pteridin-7-yl]benzene-1,2-diol chloride salt]
Infarct (% AAR, mean ± SEM) [3, 7]: 37.1 ± 2.6 % AAR | % Infarct reduction [3, 8]: 40% | Infarct (% AAR, mean ± SEM) [3, 9]: 40.1 ± 2.0 % AAR | % Infarct reduction [3, 10]: 35%

Cl.Oc1ccc(Nc2ncnc3ncc(-c4ccccc4)nc23)c2cccnc12 [5-(6-Phenyl-pteridin-4-ylamino)-quinolin-8-ol hydrochloride salt]
Score (scale of 0-12) ([1]; 0.5 mg/kg IV): 5

Cl.Nc1ncnc2nc(-c3cccc(O)c3)c(-c3cccc(O)c3)nc12 [6,7-Bis(3-hydroxyphenyl)-pteridine-4-ylamine hydrochloride salt]
Infarct (% AAR, mean ± SEM) [3, 7]: 39.1 ± 4.2 % AAR | % Infarct reduction [3, 8]: 37% | Infarct (% AAR, mean ± SEM) [3, 9]: 39.1 ± 7.5 % AAR | % Infarct reduction [3, 10]: 37%

Oc1cccc(-c2nc3nc(O)nc(O)c3nc2-c2cccc(O)c2)c1 [6,7-Bis-(3-hydroxy-phenyl)-pteridine-2,4-diol]
Score (scale of 0-12) ([1]; 1.5 mg/kg IV): 3

Nc1ncnc2nc(-c3ccccn3)c(-c3ccccn3)nc12 [6,7-Di-pyridin-2-yl-pteridin-4-ylamine]
Infarct area in mm^3 (mean ± SEM) [4]: 27.2 ± 2.63 mm^3 | % Infarct reduction [4]: Not significant

Oc1nc(O)c2nc(-c3ccccc3)c(-c3ccccc3)nc2n1 [6,7-Diphenyl-pteridine-2,4-diol]
Infarct area in mm^3 (mean ± SEM) [4]: 20.2 ± 4.19 mm^3 | % Infarct reduction [4]: 52%

Nc1nc(N)c2nc(-c3ccc(O)c(O)c3)c(-c3ccc(O)c(O)c3)nc2n1 [6,7-bis(3,4-dihydroxyphenyl)-pteridine-2,4,-diamine, hydrochloride salt]
Infarct (% AAR, mean ± SEM) ([3]; 1.5 mg/kg BW IV at 90 min post-reperfusion): 36.3 ±6.3 % AAR | % Infarct reduction ([3]; 1.5 mg/kg BW, versus vehicle of the same study): 33%

Nc1nc(N)c2nc(CNCc3ccc4ccccc4c3)cnc2n1 [6-{[(Naphthalen-2-ylmethyl)-amino]-methyl}-pteridine-2,4-diamine]
Score (scale of 0-12) ([1]; 0.1 mg/kg IV): 4

Nc1nc(N)c2nc(CNCc3ccccn3)cnc2n1 [6-{[(Pyridin-2-ylmethyl)-amino]-methyl}-pteridine-2,4-diamine]
Score (scale of 0-12) ([1]; 0.1 mg/kg IV): 4

O=C(Nc1ccccc1C1Cc2ccccc2N1)c1ccccc1O (stereo not shown) [N-[2-(2,3-Dihydro-1H-indol-2-yl)-phenyl]-2-hydroxy-benzamide]
Score (scale of 0-12) ([1]; 0.5 mg/kg IV): 5

Nc1nc(N)c2nc(-c3ccccc3)c(-c3ccccc3)nc2n1 [compound B, 6,7-diphenyl-pteridine-2,4-diamine]
reduction of tumor burden ([2]; in combination with doxorubicin as printed, FIGURE 4 experiment (docetaxel study)): greater than 70% | reduction of tumor burden ([2]; in combination with doxorubicin, FIGURE 3 experiment, I.P. every 3 days for 3 cycles, day 20): greater than 65% | tumor burden in lungs (photo of representative lung samples) ([2]; plus doxorubicin, compared with vehicle (control) lungs, FIGURE 5): dramatic reduction in tumor burden | reduction of tumor burden ([2]; stand alone agent, FIGURE 3 experiment (doxorubicin study), I.P. every 3 days for 3 cycles, day 20): 35% | reduction of tumor burden [2, 6]: 20%

Cl.Cl.Nc1ccc2nc(-c3ccc(O)c(O)c3)c(-c3ccc(O)c(O)c3)nc2n1 [compound C, 2,3-Bis(3,4-dihydroxyphenyl)-pyrido[2,3-b]pyrazin-6-ylamine dihydrochloride salt]
reduction of tumor burden [2, 5]: greater than 85% | reduction of tumor burden [2, 6]: 65%
